Values after ≈ are worked out from the molar mass of the structure shown.
Tests used:
Staphylococcus aureus [1] = test: Antibacterial activity against Staphylococcus aureus ATCC 25923 after 24 hrs by broth dilution assay; format: functional; details: ATCC 25923, 24 h
Staphylococcus aureus [2] = test: Antibacterial activity against methicillin-resistant Staphylococcus aureus ATCC 43300 after 24 hrs by broth dilution assay; format: functional; details: ATCC 43300, 24 h

CC1(C)S[C@@H]2[C@H](NC(=O)Cc3ccccc3)C(=O)N2[C@H]1C(=O)O [PENICILLIN G]
MIC (Staphylococcus aureus [1]): 0.012 µg/mL (≈ 0.0359 µM) | MIC (Staphylococcus aureus [2]): 16 µg/mL (≈ 47.8 µM)

Source: ChEMBL document CHEMBL1139929, “Penicillin-bound polyacrylate nanoparticles: restoring the activity of beta-lactam antibiotics against MRSA” (2007)
